Laboratory results published in patent US8846947B2, “Benzimidazoles and related analogs as sirtuin modulators” (GlaxoSmithKline LLC, priority 2008, dated 2014).

Molecular target: T1, SIRT1 (Homo sapiens, UniProt Q96EB6)
T1 sequence (Q96EB6 1-747): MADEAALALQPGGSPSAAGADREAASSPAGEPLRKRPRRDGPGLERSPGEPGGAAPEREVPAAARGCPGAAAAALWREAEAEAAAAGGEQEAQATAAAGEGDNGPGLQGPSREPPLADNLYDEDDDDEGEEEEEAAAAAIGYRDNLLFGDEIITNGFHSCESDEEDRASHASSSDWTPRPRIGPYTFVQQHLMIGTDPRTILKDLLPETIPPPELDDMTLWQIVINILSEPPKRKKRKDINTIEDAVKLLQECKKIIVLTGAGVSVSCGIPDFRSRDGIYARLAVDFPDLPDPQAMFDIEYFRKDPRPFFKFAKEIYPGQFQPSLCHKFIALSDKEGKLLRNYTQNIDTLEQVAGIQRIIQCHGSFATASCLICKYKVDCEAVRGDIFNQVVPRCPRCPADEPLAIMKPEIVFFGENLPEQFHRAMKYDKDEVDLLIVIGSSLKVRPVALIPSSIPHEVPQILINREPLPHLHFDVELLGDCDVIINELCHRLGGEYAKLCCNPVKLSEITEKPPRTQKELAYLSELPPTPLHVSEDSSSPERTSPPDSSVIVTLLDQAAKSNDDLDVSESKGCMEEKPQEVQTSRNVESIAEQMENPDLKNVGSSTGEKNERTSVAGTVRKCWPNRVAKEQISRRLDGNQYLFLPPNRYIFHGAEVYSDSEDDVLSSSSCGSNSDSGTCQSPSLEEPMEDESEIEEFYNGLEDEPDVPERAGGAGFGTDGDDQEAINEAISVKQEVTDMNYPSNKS
Experiment: Mass spectrometry based SIRT1 deacetylase activation assay (acetylated p53-derived peptide substrate)
Assay type: biochemical
Conditions: 0.5 μM peptide substrate, 120 μM βNAD+, 10 nM SIRT1, 25 min at 25° C.; for EC1.5: read-out: EC1.5

SMILES | Fold Act. (percent maximum fold activation) | EC1.5 [nM]
O=C(Nc1ccccn1)c1cccc2[nH]c(-c3ccc(F)cc3OCCN3CCOCC3)nc12 [Compound 504] | B (Fold Activation <200%) | 1000 to 25000
Cc1cc(Cl)cc(-c2nc3c(C(=O)Nc4nccs4)cccc3[nH]2)c1OCCN1CCOCC1 [Compound 505] | A (Fold activation >200%) | 1000 to 25000
Cc1cc(Cl)cc(-c2nc3c(C(=O)Nc4ccccn4)cccc3[nH]2)c1OCCN1CCOCC1 [Compound 506] | B (Fold Activation <200%) | 1000 to 25000
O=C(Nc1nccs1)c1cccc2[nH]c(-c3ccccc3OCCN3CC[C@@H](F)C3)nc12 [Compound 507] | B (Fold Activation <200%) | 1000 to 25000
O=C(Nc1ccccn1)c1cccc2[nH]c(-c3ccccc3OCCN3CC[C@@H](F)C3)nc12 [Compound 508] | A (Fold activation >200%) | 1000 to 25000
O=C(Nc1nccs1)c1cccc2[nH]c(-c3ccccc3OCCN3CC[C@H](F)C3)nc12 [Compound 509] | B (Fold Activation <200%) | < 1000
O=C(Nc1ccccn1)c1cccc2[nH]c(-c3ccccc3OCCN3CC[C@H](F)C3)nc12 [Compound 510] | B (Fold Activation <200%) | 1000 to 25000
O=C(Nc1nccs1)c1cccc2[nH]c(-c3cc(F)ccc3C(F)F)nc12 [Compound 511] | A (Fold activation >200%) | 1000 to 25000
Cc1cnc(NC(=O)c2cccc3[nH]c(-c4cc(F)ccc4C(F)F)nc23)s1 [Compound 512] | A (Fold activation >200%) | < 1000
O=C(Nc1ccccn1)c1cccc2[nH]c(-c3cc(F)ccc3C(F)F)nc12 [Compound 513] | A (Fold activation >200%) | < 1000
O=C(Nc1nccs1)c1cccc2[nH]c(-c3ccccc3C(F)F)nc12 [Compound 514] | A (Fold activation >200%) | < 1000
Cc1cnc(NC(=O)c2cccc3[nH]c(-c4ccccc4C(F)F)nc23)s1 [Compound 515] | A (Fold activation >200%) | < 1000
O=C(Nc1ccccn1)c1cccc2[nH]c(-c3ccccc3C(F)F)nc12 [Compound 516] | A (Fold activation >200%) | < 1000
CS(=O)(=O)c1ccccc1-c1nc2c(C(=O)Nc3nccs3)cccc2[nH]1 [Compound 517] | A (Fold activation >200%) | 1000 to 25000
CS(=O)(=O)c1ccccc1-c1nc2c(C(=O)Nc3cccnc3)cccc2[nH]1 [Compound 518] | A (Fold activation >200%) | 1000 to 25000
CS(=O)(=O)c1ccccc1-c1nc2c(C(=O)Nc3ccccn3)cccc2[nH]1 [Compound 519] | A (Fold activation >200%) | < 1000
CS(=O)(=O)c1cc(Cl)ccc1-c1nc2c(C(=O)Nc3nccs3)cccc2[nH]1 [Compound 520] | A (Fold activation >200%) | 1000 to 25000
CS(=O)(=O)c1cc(Cl)ccc1-c1nc2c(C(=O)Nc3cccnc3)cccc2[nH]1 [Compound 521] | A (Fold activation >200%) | 1000 to 25000
CS(=O)(=O)c1cc(Cl)ccc1-c1nc2c(C(=O)Nc3ccccn3)cccc2[nH]1 [Compound 522] | A (Fold activation >200%) | < 1000
Cc1cc(NC(=O)c2cccc3[nH]c(-c4cnc5c(c4)OCCN5C)nc23)n(C)n1 [Compound 523] | B (Fold Activation <200%) | > 25000
O=C(Nc1cccc(OC2CCNC2)c1)c1cccc2[nH]c(-c3cc(F)ccc3C(F)(F)F)nc12 (stereo not shown) [Compound 524] | A (Fold activation >200%) | < 1000
O=C(Nc1cccc(OC2CCNCC2)c1)c1cccc2[nH]c(-c3cc(F)ccc3C(F)(F)F)nc12 [Compound 525] | A (Fold activation >200%) | < 1000
O=C(Nc1cccc(OC2CCNC2)c1)c1cccc2[nH]c(-c3ccccc3C(F)(F)F)nc12 (stereo not shown) [Compound 526] | A (Fold activation >200%) | < 1000
CN1CCN(c2cccc(-c3nc4c(C(=O)Nc5nccs5)cccc4[nH]3)c2)CC1 [Compound 527] | A (Fold activation >200%) | < 1000

SMILES | Fold Act. (percent maximum fold activation) | EC1.5 [nM]
CN1CCN(c2cccc(-c3nc4c(C(=O)Nc5ccccn5)cccc4[nH]3)c2)CC1 [Compound 528] | A (Fold activation >200%) | < 1000
CC(C)N1CCN(c2cccc(-c3nc4c(C(=O)Nc5nccs5)cccc4[nH]3)c2)CC1 [Compound 529] | A (Fold activation >200%) | < 1000
CC(C)N1CCN(c2cccc(-c3nc4c(C(=O)Nc5ccccn5)cccc4[nH]3)c2)CC1 [Compound 530] | A (Fold activation >200%) | < 1000
O=C(Nc1cccnc1)c1cccc2[nH]c(-c3cccc4c3OC(F)(F)O4)nc12 [Compound 531] | A (Fold activation >200%) | < 1000
Cc1cnc(NC(=O)c2cccc3[nH]c(-c4cccc5c4OC(F)(F)O5)nc23)s1 [Compound 532] | A (Fold activation >200%) | < 1000
O=C1COc2ccc(-c3nc4c(C(=O)Nc5cccnc5)cccc4[nH]3)cc2N1 [Compound 533] | B (Fold Activation <200%) | > 25000
Cc1cnc(NC(=O)c2cccc3[nH]c(-c4ccc5c(c4)NC(=O)CO5)nc23)s1 [Compound 534] | A (Fold activation >200%) | < 1000
O=C(Nc1ccccn1)c1cccc2[nH]c(-c3ccc(OC4CCNCC4)cc3)nc12 [Compound 535] | A (Fold activation >200%) | < 1000
O=C(Nc1cccnc1)c1cccc2[nH]c(-c3ccc(OC4CCNCC4)cc3)nc12 [Compound 536] | A (Fold activation >200%) | 1000 to 25000
Cc1cnc(NC(=O)c2cccc3[nH]c(-c4ccc(OC5CCNCC5)cc4)nc23)s1 [Compound 537] | A (Fold activation >200%) | < 1000
O=C(Nc1ccccn1)c1cccc2[nH]c(-c3ccccc3OC3CCNCC3)nc12 [Compound 538] | A (Fold activation >200%) | 1000 to 25000
O=C(Nc1cccnc1)c1cccc2[nH]c(-c3ccccc3OC3CCNCC3)nc12 [Compound 539] | A (Fold activation >200%) | 1000 to 25000
O=C(Nc1ccccn1)c1cccc2[nH]c(-c3ccnc(N4CCCC4)c3)nc12 [Compound 540] | A (Fold activation >200%) | < 1000
O=C(Nc1ccc(CN2CCCC2)cn1)c1cccc2[nH]c(-c3ccccc3C(F)(F)F)nc12 [Compound 541] | A (Fold activation >200%) | < 1000
O=C(Nc1ccc(CN2CCCC2)cn1)c1cccc2[nH]c(-c3ccc(Cl)cc3C(F)(F)F)nc12 [Compound 542] | A (Fold activation >200%) | < 1000
O=C(Nc1nccs1)c1cccc2[nH]c(-c3cc(F)cc(Cl)c3OCCN3CCOCC3)nc12 [Compound 543] | B (Fold Activation <200%) | 1000 to 25000
O=C(Nc1ccccn1)c1cccc2[nH]c(-c3cc(F)cc(Cl)c3OCCN3CCOCC3)nc12 [Compound 544] | B (Fold Activation <200%) | 1000 to 25000
Cc1ccc(OCCN2CCOCC2)c(-c2nc3c(C(=O)Nc4nccs4)cccc3[nH]2)c1 [Compound 545] | A (Fold activation >200%) | < 1000
Cc1ccc(OCCN2CCOCC2)c(-c2nc3c(C(=O)Nc4ccccn4)cccc3[nH]2)c1 [Compound 546] | A (Fold activation >200%) | 1000 to 25000
CC(C)(C)c1ccc(OCCN2CCOCC2)c(-c2nc3c(C(=O)Nc4nccs4)cccc3[nH]2)c1 [Compound 547] | B (Fold Activation <200%) | 1000 to 25000
CC(C)(C)c1ccc(OCCN2CCOCC2)c(-c2nc3c(C(=O)Nc4ccccn4)cccc3[nH]2)c1 [Compound 548] | B (Fold Activation <200%) | < 1000
Cc1cnc(NC(=O)c2cccc3[nH]c(-c4ccc(N5CCOCC5)cc4C(F)(F)F)nc23)s1 [Compound 549] | A (Fold activation >200%) | < 1000
O=C(Nc1cccnn1)c1cccc2[nH]c(-c3ccc(N4CCOCC4)cc3C(F)(F)F)nc12 [Compound 550] | A (Fold activation >200%) | < 1000
